In PubChem BioAssay (NCI) one finds TGI data, which are given here for nine compounds.

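Five compound concentrations were applied to cells in 96-well plates for 48 hours; endpoints were derived by simple linear interpolation of the resulting dose-response curve. Definition used: TGI = concentration required for complete inhibition of growth.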 Where only a bound is given, the exact number is not on record here.

Among the test systems are SNB-75 CNS; RPMI-8226 leukemia; ACHN renal; A549 NSCLC; UACC-62 melanoma; NCI-H23 lung; 786-0 renal; OVCAR-8 ovarian; SF-295 CNS; OVCAR-5 ovarian; SK-MEL-5 melanoma; HCT-15 colon; OVCAR-4 ovarian; KM12 colon; MALME-3M melanoma; NCI-H522 lung; HOP-92 NSCLC; HS 578T breast.
What all share (test): inhibition of tumour cell growth, NCI panel, 48 h

Regarding `Nc1ccc2nc(NCc3ccc(F)cc3)cnc2c1`, the TGI in the assay with SNB-75 CNS, in the assay on RPMI-8226 leukemia, in the assay on ACHN renal, with A549 NSCLC, in the assay on UACC-62 melanoma and in the assay on NCI-H23 lung was more than 100 µM in each case. Besides, the TGI in the assay with 786-0 renal, in the assay with OVCAR-8 ovarian, in the assay on SF-295 CNS, with OVCAR-5 ovarian, in the assay on SK-MEL-5 melanoma and in the assay with HCT-15 colon was more than 100 µM in each case. Besides, the TGI in the assay on OVCAR-4 ovarian, in the assay on KM12 colon, in the assay with MALME-3M melanoma and in the assay with NCI-H522 lung was more than 100 µM in each case.
With `N#CCCN(c1ccc(/C=C2\N=C(Cc3ccccc3)OC2=O)cc1)S(=O)(=O)c1ccccc1`, the TGI in the assay on SNB-75 CNS, in the assay with RPMI-8226 leukemia, with ACHN renal, with A549 NSCLC, in the assay with UACC-62 melanoma and in the assay on NCI-H23 lung was more than 100 µM in each case. Besides, the TGI with 786-0 renal, in the assay on OVCAR-8 ovarian, with SF-295 CNS, in the assay on OVCAR-5 ovarian, in the assay with SK-MEL-5 melanoma and in the assay on HCT-15 colon was more than 100 µM throughout. Also, the TGI in the assay with KM12 colon, with MALME-3M melanoma and in the assay on NCI-H522 lung was more than 100 µM in each case.
On to `CN(C)CCC(O)(c1ccccc1)C(O)(CCN(C)C)c1ccccc1` (configuration not stated), for which the TGI in the assay on SNB-75 CNS, with RPMI-8226 leukemia, with ACHN renal, with A549 NSCLC, in the assay with UACC-62 melanoma and with NCI-H23 lung was more than 100 µM in each case. In addition, the TGI in the assay with 786-0 renal, with OVCAR-8 ovarian, in the assay with SF-295 CNS, in the assay on OVCAR-5 ovarian, in the assay with SK-MEL-5 melanoma and in the assay on HCT-15 colon was more than 100 µM in each case. Also, the TGI was more than 100 µM with OVCAR-4 ovarian, more than 100 µM in the assay with KM12 colon, 32.6 µM in the assay on MALME-3M melanoma and more than 100 µM with NCI-H522 lung.
Take `CCOc1ccc(NC(=O)C(=O)NO)cc1`: the TGI with SNB-75 CNS, in the assay with RPMI-8226 leukemia, with ACHN renal, in the assay on A549 NSCLC, with UACC-62 melanoma and in the assay with NCI-H23 lung was more than 100 µM each time. Besides, the TGI in the assay with 786-0 renal, with OVCAR-8 ovarian, in the assay on SF-295 CNS, with OVCAR-5 ovarian, in the assay on SK-MEL-5 melanoma and in the assay on HOP-92 NSCLC was more than 100 µM each time. Further, the TGI in the assay with HCT-15 colon, in the assay on OVCAR-4 ovarian, in the assay with KM12 colon, in the assay on MALME-3M melanoma and in the assay with NCI-H522 lung was more than 100 µM in each case.
Consider `COc1ccccc1/C=C(\C#N)C(=O)c1ccccc1`, for which the TGI in the assay on RPMI-8226 leukemia, with ACHN renal, with A549 NSCLC, in the assay on UACC-62 melanoma, in the assay on NCI-H23 lung and in the assay with 786-0 renal was more than 100 µM in each case. For the same compound, the TGI with OVCAR-8 ovarian, with SF-295 CNS, in the assay with OVCAR-5 ovarian, in the assay on SK-MEL-5 melanoma, with HOP-92 NSCLC and in the assay with HCT-15 colon was more than 100 µM in each case. The TGI in the assay on OVCAR-4 ovarian, in the assay on KM12 colon, with MALME-3M melanoma and with NCI-H522 lung was more than 100 µM each time.
As for `CCOc1ccc(NC(=O)C2=C(C)NC(C)=C(C(=O)Nc3ccc(OCC)cc3)C2c2ccc(O)c(OC)c2)cc1`, the TGI with SNB-75 CNS was 59.2 µM; in the assay with RPMI-8226 leukemia, more than 100 µM; in the assay on ACHN renal, more than 100 µM; in the assay on A549 NSCLC, more than 100 µM; in the assay with NCI-H23 lung it was more than 100 µM; in the assay with 786-0 renal it was more than 100 µM. For the same compound, the TGI with OVCAR-8 ovarian was more than 100 µM; in the assay on SF-295 CNS, more than 100 µM; with OVCAR-5 ovarian it was more than 100 µM; in the assay on SK-MEL-5 melanoma, more than 100 µM; in the assay with HOP-92 NSCLC, 53.9 µM; with OVCAR-4 ovarian, more than 100 µM. Besides, the TGI in the assay on KM12 colon, in the assay on MALME-3M melanoma and with NCI-H522 lung was more than 100 µM throughout.
Take `Nc1nc(NCCO)c(N=O)c(=O)[nH]1`: the TGI with SNB-75 CNS, with RPMI-8226 leukemia, in the assay on ACHN renal, in the assay with A549 NSCLC, in the assay with UACC-62 melanoma and with 786-0 renal was more than 100 µM throughout. Also, the TGI with OVCAR-8 ovarian, in the assay with SF-295 CNS, in the assay with OVCAR-5 ovarian, with SK-MEL-5 melanoma, in the assay on HOP-92 NSCLC and in the assay with HCT-15 colon was more than 100 µM each time. In addition, the TGI in the assay on OVCAR-4 ovarian, in the assay with KM12 colon, in the assay with MALME-3M melanoma and in the assay with NCI-H522 lung was more than 100 µM each time.
Consider `O=C(CC(=O)Nc1cccc(Cl)c1)NNCC(=O)Nc1nnc(-c2ccccc2)s1`, for which the TGI with SNB-75 CNS is 33.8 µM; with RPMI-8226 leukemia, 86.6 µM; in the assay with ACHN renal, more than 100 µM; with A549 NSCLC, more than 100 µM; with UACC-62 melanoma, more than 100 µM; in the assay with NCI-H23 lung it was more than 100 µM. For the same compound, the TGI with 786-0 renal was 84.3 µM; in the assay on OVCAR-8 ovarian, more than 100 µM; in the assay with SF-295 CNS, more than 100 µM; in the assay on OVCAR-5 ovarian it was more than 100 µM; with SK-MEL-5 melanoma, more than 100 µM; in the assay on HCT-15 colon it was more than 100 µM. For the same compound, the TGI in the assay on OVCAR-4 ovarian is 5.99 µM; with KM12 colon, more than 100 µM; in the assay with NCI-H522 lung, more than 100 µM.
On to `O=C1NC(=O)C(CC(C(=O)C(=O)Nc2ccccc2Cl)C(=O)c2ccc3ccccc3c2)C(=O)N1` (configuration not stated), for which the TGI in the assay with SNB-75 CNS, in the assay with ACHN renal, in the assay with A549 NSCLC, in the assay on UACC-62 melanoma, in the assay on NCI-H23 lung and in the assay on 786-0 renal was more than 100 µM throughout. For the same compound, the TGI in the assay with OVCAR-8 ovarian, in the assay with SF-295 CNS, in the assay with OVCAR-5 ovarian, in the assay with SK-MEL-5 melanoma, with HS 578T breast and in the assay with HOP-92 NSCLC was more than 100 µM throughout. Moreover, the TGI with HCT-15 colon, with OVCAR-4 ovarian, in the assay on KM12 colon and in the assay with NCI-H522 lung was more than 100 µM each time.
